Entries after “also recorded” stand apart in the source; their conditions may differ.
Assays:
[1] = Acute toxicity in vivo in CD-1 female mice; settings: 3, 10 and 30 mg/kg i.v. or i.p.
Experimental: We have evaluated in vivo the acute toxicity of BN210. 30 CD-1 female mice (Charles River Italia s.r.l., Via Indipendenza, 11-23885 CALCO (Lecco)), weighing 21.8-22.9 g, were divided in 6 groups, each of 5 animals, and housed in Makrolon cages (type III) at a room temperature of 22±3° C. and at a relative humidity of 55±15%. Air changes were 180-220/hour. Three doses of BN210, dissolved in phosphate buffered saline, were tested: 3, 10 and 30 mg/kg given intravenously (i.v., via the tail vain) or intraperitoneally (i.p.). BN210 concentrations in the formulates were 0.155, 0.517 and 1.551 mg/ml, respectively. Mice were observed daily, twice/day, for the appearance of toxicity signs during the 14 days following drug administration. The parameters commonly checked in the Irvin test were taken into consideration. […] After 14 days of observation, all mice were sacrificed and dissected for gross pathology examination. Any sign or pathological alterations were the subject of close scrutiny during the necropsy.

soluble HRP-3 = soluble HRP-3 (Homo sapiens, UniProt Q9Y3E1); test: In vitro anti-angiogenic activity (data not shown); type: cell-based
GI-LI-N cells = settings: 48 h
HRP-3 [2] = target: T1, HRP-3 (Homo sapiens, UniProt Q9Y3E1); test: HRP-3 induced sprouting of HUVEC blocked by single strand oligonucleotides; type: cell-based; settings: recombinant HRP-3 plus synthetic oligo
T1 construct: The HRP-3 coding region was cloned into the pET30 vector using EcoRI and NdeI as restriction sites; made in house; host or cells: E. coli BL21
Excerpt: We tried to twice block the protein effect of human endothelial cells sprouting with a modified single strand oligonucleotides. In samples with recombinant protein, and synthetic oligos, SEQ ID NO. 16, 17, and 18 the number of sprouted spheroids was reduced as compared to samples with recombinant protein (FIG. 19).

[3] = tested on: GI-LI-N neuroblastoma xenograft; test: Orthotopic neuroblastoma (GI-LI-N) xenograft survival in nude mice; type: in vivo; settings: VCR 1 mg/kg i.v. once a week for 5 weeks
Experimental: Mice were housed under specific pathogen-free conditions. The in vivo experiment was performed using five week old female athymic (Nude-nu) mice. Mice were anaesthetized with a mixture of xylazine (10 mg/kg) and ketamine (90 mg/kg) (Imalgene 1000, Merial Italia S.p.A., Milan, Italy), subjected to laparatomy, and orthotopically injected with the neuroblastoma (NB) cell line, GI-LI-N (1.5×10^6 cells in 10 μL of saline solution/mouse), in the capsule of the left adrenal gland, as previously reported (Pastorino F. et al., Cancer Res 63, 2003; Pastorino F. et al., Clin Cancer Res 2008). No mortality was observed following tumour cells implantation. NB tumours were allowed to grow from the injected cells for 22 days, then animals were randomly divided in 3 groups. One group was treated i.v., once a week for 5 weeks, with 1 mg/kg of vincristine (VCR, 5 administration in total). A second group of animals was treated with a combination of VCR (i.v. injection of 1 mg/kg, once a week for 5 weeks, 5 administration in total) and BN210 (i.p. injection of 7 mg/kg, 5 days/week, 20 administrations in total). Negative control mice were treated with HEPES-buffered saline. The significance of the differences between experimental groups (n=8 mice/group) in the survival experiments was determined by Kaplan-Meier curves by the use of Chi square log-rank test. […]

HUVEC cells [4] = test: HUVEC sprouting test; type: cell-based, human
Experimental: (§1) While no effects on the proliferation on BAEC and HUVEC cells were found, HRP-3 is able to induce HUVEC sprouting after 24 hours of stimulation. As shown in FIGS. 3 and 4 the HRP-3 can induce sprouting in HUVEC cells in a dose dependent manner. In FIG. 4 we have shown the negative control and the positive control with VEGF at 60 ng/ml. […] To be sure of ours results, experiments have been made in blind too.
Furthermore to confirm VEGF-independent angiogenic activity we performed another sprouting test with Avastin, anti-VEGF antibody in presence of VEGF and our protein.

HRP-3 [5] = target: T1, HRP-3; test: 3T3 migration in vitro assay: prevention of HRP-3 function by DNA duplexes; type: cell-based, mouse
Experimental: All the four DNA duplexes were tested in our 3T3 migration in vitro assay to see if they were able to prevent HRP-3 function by binding its PWWP domain (FIG. 13). […] The third column on the left is the negative control.

NIH 3T3 fibroblasts = test: 3T3 migration assay in presence of increasing amounts of HRP-3; type: cell-based, mouse; settings: 30 ng/mL HRP-3, 24 h
Experimental: (§2) In analogy with the reported HDGF activity on NIH 3T3 fibroblast, we decided to test the HRP-3 activity on these cells to develop a test able to report any interfering activity by a ligand able to bind the PWWP domain. Migration and proliferation assay of 3T3 cells in presence of increasing amounts of the protein were performed. These assays allow the definition of a strong anti-migratory effect of the HRP-3 protein, which at 30 ng/mL is able to prevent 50% of the 3T3 migration induced at 24 h by 5% FBS. This test was validated and is currently well reproducible, FIG. 2.

3T3 cells [6] = test: 3T3 proliferation assay; type: cell-based, mouse
Experimental: as §2

3T3 cells [7] = test: 3T3 anchorage independent growth; type: cell-based, mouse
BAEC = test: Proliferation of endothelial primary cells (BAEC); type: cell-based
Experimental: as §1

HUVEC [8] = test: Proliferation of endothelial primary cells (HUVEC); type: cell-based, human
Experimental: as §1

HUVEC [9] = test: Tube formation assay in Matrigel; type: cell-based, human; settings: after 24 hours, preliminary result
HUVEC cells [10] = test: mRNA expression in HUVEC by Real Time PCR; type: cell-based, human
Excerpt: To understand the molecular basis of this stimulation, we studied mRNA expression of HRP-3 in HUVEC cell line by Real Time PCR. […] To understand if VEGF or VEGFR-2 was involved with the HRP-3 induced mechanism, we stimulated HUVEC cells with our HRP-3 and investigated mRNA levels of VEGF, VEGFR-2, HRP-3 and HDGF. The expression of those genes is not changed by HRP-3, FIGS. 5 and 6.

HUVEC [11] = test: HUVEC migration assay in presence of increasing amounts of HRP-3; type: cell-based, human; settings: 100 ng/ml HRP-3, 5 and 16 h
Experimental: Migration assay of HUVEC in presence of increasing amounts of the protein was performed (FIG. 9). These assay allows the definition of a anti-migratory effect of the protein on human endothelial cells in a dose-dependent manner, which at 100 ng/ml is able to prevent about 80% of the migration induced at 5 and 16 h by 5% FBS.

[12] = tested on: SH-SY5 neuroblastoma cells; test: Proliferation assay of SH-SY5 cells; type: cell-based, human; settings: 100 ng/mL HRP-3, 24 and 48 h
Experimental: Angiogenesis plays a key role during neural differentiation, exerting a trophic activity on both neurons and glia. A variety of angiogenic factors have been identified so far to play an important role in the induction of angiogenesis in NBs, including vascular endothelial growth factor (VEGF). Proliferation assay of SH-SY5 and NCS-34 cells in presence of increasing amounts of the protein were performed. These assays allow the definition of a anti-proliferatory effect of the protein only on SHSY, which at 100 ng/mL is able to prevent 25% of the SH-SY5 proliferation induced at 24 and 48 h by 5% FBS.

T1 sequence (Q9Y3E1 whole entry): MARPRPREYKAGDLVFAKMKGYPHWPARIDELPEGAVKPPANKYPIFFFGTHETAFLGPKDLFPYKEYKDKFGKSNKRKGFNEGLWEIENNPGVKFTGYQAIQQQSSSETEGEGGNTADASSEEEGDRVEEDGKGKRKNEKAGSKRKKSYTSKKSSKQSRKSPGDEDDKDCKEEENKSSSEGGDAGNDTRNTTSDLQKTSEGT
Chain of soluble HRP-3 (Q9Y3E1 whole entry): as above

## 5′-PEG (40 KDa)-(NH)-T*AC AACACCCACAAAAAAUTTGTGGGTGTT GTiA-3' (BTACAACACCCACAAAAAAUTTGTGGGTGTTGTA; 5'-PEG 40 kDa amino linker, 3' inverted nucleotide, hairpin, further chemistry not given here) [BN210]
[1]; 14 days observation
  clinical or behavioural signs of toxicity: no signs of clinical or behavioural alterations
[1]; after 14 days
  gross pathology at necropsy: No macroscopic signs or pathological changes
Soluble HRP-3
  anti-angiogenic activity in vitro: anti-angiogenic activity
GI-LI-N cells; 250 nM BN210 with vincristine 0.15 to 5 nM
  effect of addition on vincristine treatment: did not enhance or inhibit

## 5′-TACAACACCCACAAAAAATTTGTGGGTGTTGTA-3' (TACAACACCCACAAAAAATTTGTGGGTGTTGTA; DNA, backbone and methylation of C not given here) [SEQ ID NO. 16]
HRP-3 [2]
  number of sprouted HUVEC spheroids versus recombinant protein alone: can block; also recorded: reduced

## 5′-TAC AAC ACC CAC AAA-[CH2CH2O]5-TTT GTG GGT GTT GTA-[CH2CH2O]5H-3' (TACAACACCCACAAABTTTGTGGGTGTTGTAB; PEG5 spacers, chemistry not fully specified) [SEQ ID NO. 18]
HRP-3 [2]
  number of sprouted HUVEC spheroids versus recombinant protein alone: reduced

## 5′-UACAACACCCACAAAAAAUUUGUGGGUGUUGUA-3' (2'-OMe) (UACAACACCCACAAAAAAUUUGUGGGUGUUGUA; all 2'-O-methyl, backbone not given here) [SEQ ID NO. 17]
HRP-3 [2]
  number of sprouted HUVEC spheroids versus recombinant protein alone: reduced

## CC[C@]1(O)C[C@H]2CN(CCc3c([nH]c4ccccc34)[C@@](C(=O)OC)(c3cc4c(cc3OC)N(C=O)[C@H]3[C@@](O)(C(=O)OC)[C@H](OC(C)=O)[C@]5(CC)C=CCN6CC[C@]43[C@@H]65)C2)C1 [vincristine, reference compound]
[3]
  life span compared to negative control mice: did not show any increase of their life span
GI-LI-N cells; MTT
  concentration inhibiting proliferation of GI-LI-N cells: 2.5 to 5 nM

## Avastin: anti-VEGF antibody
HUVEC cells [4]; in presence of VEGF
  effect on VEGF-mediated HUVEC sprouting: blocks HUVEC sprouting VEGF-mediated

## Duplex 2: derived DNA double strand with base changes versus Duplex 1, to test importance of sequence for binding (chain 1 TACAACATTCACAAA; chain 2 TTTGTGAATGTTGTA; chain 1: DNA, backbone and methylation of C not given here; chain 2: DNA, backbone not given here)
HRP-3 [5]
  activity in abolishing the anti-migratory effect of HRP-3 on 3T3 cells: modest activity

## Duplex 3: derived DNA double strand designed to test different molecular shapes (chain 1 TACAACAAACCCACAAA; chain 2 TTTGTGGGTGTTGTA; chain 1: DNA, backbone and methylation of C not given here; chain 2: DNA, backbone not given here)
HRP-3 [5]
  activity in abolishing the anti-migratory effect of HRP-3 on 3T3 cells: no activity

## Duplex 4: derived DNA double strand with base changes versus Duplex 1, to test importance of sequence for binding (chain 1 CACACACACACACAC; chain 2 GTGTGTGTGTGTGTG; chain 1: DNA, backbone and methylation of C not given here; chain 2: DNA, backbone not given here)
HRP-3 [5]
  activity in abolishing the anti-migratory effect of HRP-3 on 3T3 cells: no activity

## HRP-3: recombinant HDGF Related Protein 3 with PWWP domain, cDNA from human cells, produced in E. Coli
NIH 3T3 fibroblasts
  prevention of 3T3 migration induced by 5% FBS: 50%
3T3 cells [6]
  concentration that blocks 3T3 proliferation: 0.1 ng/mL
3T3 cells [7]
  concentration that blocks 3T3 anchorage independent growth: 0.1 ng/mL
BAEC
  effect on proliferation of BAEC: no effects
HUVEC [8]
  effect on proliferation of HUVEC: no effects
HUVEC cells [4]; 24 hours of stimulation
  concentration stimulating sprouting on HUVEC cells: above 100 ng/ml
HUVEC [9]
  vessel-like network of HUVEC in tube formation assay: able to maintain vessel-like network of HUVEC
HUVEC cells [10]; HUVEC stimulated with HRP-3
  mRNA levels of VEGF, VEGFR-2, HRP-3 and HDGF after HRP-3 stimulation: not changed
HUVEC [11]
  prevention of HUVEC migration induced by 5% FBS: about 80%
[12]
  prevention of SH-SY5 proliferation induced by 5% FBS: 25%

## VEGF
HUVEC cells [10]; HUVEC treated with 60 ng/ml VEGF, versus negative control
  HRP-3 mRNA levels after VEGF treatment: no significant difference
